Results as given in patent publication US10626112B2, “Heterocyclic sulfonamide derivative and medicine comprising same” (EA PHARMA CO., LTD., priority 2014, dated 2020).

Molecular target: human TRPA1 (Homo sapiens (Human), UniProt O75762)
Assay: Measurement of TRPA1 antagonist activity (2): as (1), different lot of human TRPA1 expression plasmid
Format: cell-based
Details: 293T cells transfected with human TRPA1, allylisothiocyanate 20 μM stimulation, calcium fluorescence, read-out: hTRPA1 IC50
Method: Human embryonic kidney-derived 293T cells were cultured in Dulbecco's Modified Eagle Medium containing 10% fetal bovine serum, 10 unit penicillin, and 10 μg streptomycin, plated on a petri dish having a diameter of 10 cm at 3×10^6 cells, and cultured for 24 hr in a CO2 incubator. A reduced serum medium (manufactured by Invitrogen, trade name: OPTI-MEM, 600 μL), a gene transfer reagent (manufactured by Mirus Bio, trade name: Mirus TransIT-293, 18 μL), and human TRPA1 expression plasmid (6 μg) were mixed, the total amount of the mixture was added to the cells on the petri dish to allow for gene transfer. The cells were recovered about for 8 hr later, plated on a poly-D-lysine coated 384 well black/clear bottom plate at 12,000 cells/well, and cultured overnight.
Measurement of Intracellular Calcium Increase
The 384 well plate was recovered, and the medium was removed. A calcium-bonded fluorescent indicator (manufactured by Molecular Device, trade name: Calcium4 Assay Kit, 38 μL) dissolved in assay buffer (1×HBSS, 20 mM HEPES, pH 7.2) was added, and the cells were stained in a CO2 incubator for 1 hr. The cells were taken out at room temperature, stood for not less than 15 min, a test substance (10 μL) was added by a platereader FDSS7000 (Hamamatsu Photonics K.K.) equipped with a 384ch dispenser. After 10 min, allylisothiocyanate (12 μL) was further added at a final concentration of 20 μM, and changes in the relative fluorescence intensity after addition of allylisothiocyanate were measured for 5 min.
Test Substance Preparation
The test substance was dissolved in dimethyl sulfoxide and serially diluted with an assay buffer containing 0.1% bovine serum albumin (1×HBSS, 20 mM HEPES, pH 7.2) to a 4.8-fold concentration of the evaluation concentration. Allylisothiocyanate, which is a known TRPA1 activator, was dissolved in dimethyl sulfoxide to 100 mM, and further diluted 5-fold (100 μM) of the final concentration, like the test substance.
Calculation of Antagonist Activity
Under the test substance-free conditions, the maximum variation range of the fluorescence intensity before and after allylisothiocyanate stimulation was defined to be 100% activity rate, and the variation range before and after buffer stimulation was defined as 0% activity rate. The activity rate on addition of the test substance was determined, and the numerical value obtained by subtracting the activity rate from 100 was defined to be an inhibitory rate. IC50, which is the concentration of the test substance necessary for reaching the 50% inhibitory rate, was calculated from the sigmoid approximate curve by a spreadsheet software Excel-Fit.
Measurement of TRPA1 Antagonist Activity (2)
By a method similar to that in Experimental Example 1-1 except that the lot of human […] expression plasmid is different, the TRPA1 antagonist activity of the test substance was measured.

Chain of human TRPA1 (O75762 whole entry): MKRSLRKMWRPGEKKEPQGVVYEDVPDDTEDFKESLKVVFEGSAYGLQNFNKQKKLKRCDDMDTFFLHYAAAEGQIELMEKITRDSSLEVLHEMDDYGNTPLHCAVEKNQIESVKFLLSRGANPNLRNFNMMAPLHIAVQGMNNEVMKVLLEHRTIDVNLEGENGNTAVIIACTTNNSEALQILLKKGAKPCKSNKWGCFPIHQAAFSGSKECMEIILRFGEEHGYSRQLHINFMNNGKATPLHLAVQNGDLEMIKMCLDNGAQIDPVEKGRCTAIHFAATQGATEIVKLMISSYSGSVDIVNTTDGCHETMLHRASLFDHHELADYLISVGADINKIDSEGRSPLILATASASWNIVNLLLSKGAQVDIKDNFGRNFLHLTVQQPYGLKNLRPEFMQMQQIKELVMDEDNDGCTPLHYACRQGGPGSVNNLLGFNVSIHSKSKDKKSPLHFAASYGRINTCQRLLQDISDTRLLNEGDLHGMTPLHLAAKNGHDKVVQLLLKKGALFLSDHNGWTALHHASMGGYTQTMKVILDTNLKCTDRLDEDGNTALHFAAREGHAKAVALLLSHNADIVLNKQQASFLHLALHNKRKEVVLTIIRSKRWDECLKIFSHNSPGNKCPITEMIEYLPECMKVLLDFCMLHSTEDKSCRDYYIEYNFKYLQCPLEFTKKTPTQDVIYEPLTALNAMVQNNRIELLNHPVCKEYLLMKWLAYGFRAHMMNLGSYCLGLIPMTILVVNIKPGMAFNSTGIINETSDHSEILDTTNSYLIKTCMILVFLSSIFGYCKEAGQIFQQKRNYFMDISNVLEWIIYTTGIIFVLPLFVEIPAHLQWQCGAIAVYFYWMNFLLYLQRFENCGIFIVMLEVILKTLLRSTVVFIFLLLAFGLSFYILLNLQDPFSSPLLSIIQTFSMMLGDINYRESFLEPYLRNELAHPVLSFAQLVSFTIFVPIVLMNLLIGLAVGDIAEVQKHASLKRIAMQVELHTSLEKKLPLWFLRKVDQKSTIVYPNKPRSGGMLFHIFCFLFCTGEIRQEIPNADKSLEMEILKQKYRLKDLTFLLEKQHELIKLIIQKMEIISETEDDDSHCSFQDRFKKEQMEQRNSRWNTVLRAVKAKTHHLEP

SMILES | IC50
O=C(NCc1ccnc(-c2cnc(C(F)(F)F)nc2)c1)[C@@H]1CCN1S(=O)(=O)c1cc2cc(F)ccc2o1 [Example 403, (2S)-1-(5-fluorobenzofuran-2-yl)sulfonyl-N-[[2-[2-(trifluoromethyl)pyrimidin-5-yl]-4-pyridyl]methyl]azetidine-2-carboxamide] | 13 nM
O=C(NCc1cc(-c2cnc(C(F)(F)F)cn2)ccn1)[C@@H]1CCCN1S(=O)(=O)c1cc2cc(F)ccc2o1 [Example 405, (2S)-1-(5-fluorobenzofuran-2-yl)sulfonyl-N-[[4-[5-(trifluoromethyl)pyrazin-2-yl]-2-pyridyl]methyl]pyrrolidine-2-carboxamide] | 3.5 nM
C[C@@H](C(=O)NCc1cc(-c2ccc(C(F)(F)F)cc2)ncn1)N(C)S(=O)(=O)c1cc2cc(F)ccc2o1 [Example 421, (2S)-2-[(5-fluorobenzofuran-2-yl)sulfonyl-methyl-amino]-N-[[6-[4-(trifluoromethyl)phenyl]pyrimidin-4-yl]methyl]propanamide] | 2.9 nM
C[C@H](C(=O)NCc1cc(-c2ccc(C(F)(F)F)cn2)ccn1)N(C)S(=O)(=O)c1cc2cc(F)ccc2o1 [Example 342, (2R)-2-[(5-fluorobenzofuran-2-yl)sulfonyl-methyl-amino]-N-[[4-[5-(trifluoromethyl)-2-pyridyl]-2-pyridyl]methyl]propanamide] | 180 nM
CC(C)N(CC(=O)NCc1cc(-c2ccc(OC(F)(F)F)cc2)ncn1)S(=O)(=O)c1cc2cc(F)ccc2o1 [Example 364, 2-[(5-fluorobenzofuran-2-yl)sulfonyl-isopropyl-amino]-N-[[6-[4-(trifluoromethoxy)-phenyl]pyrimidin-4-yl]methyl]acetamide] | 10 nM
O=C(CNS(=O)(=O)c1cc2cc(F)ccc2o1)NCc1cc(-c2ccc(C(F)(F)F)cn2)ccn1 [Example 343, 2-[(5-fluorobenzofuran-2-yl)sulfonylamino]-N-[[4-[5-(trifluoromethyl)-2-pyridyl]-2-pyridyl]methyl]acetamide] | 280 nM
COCCN(CC(=O)NCc1cc(-c2ccc(C(F)(F)F)cc2)ncn1)S(=O)(=O)c1cc2cc(F)ccc2o1 [Example 357, 2-[(5-fluorobenzofuran-2-yl)sulfonyl-(2-methoxyethyl)-amino]-N-[[6-[4-(trifluoromethyl)-phenyl]pyrimidin-4-yl]methyl]acetamide] | 44 nM
O=C(CNS(=O)(=O)c1cc2cc(F)ccc2o1)NCc1cc(-c2ccc(OC(F)(F)F)cc2)ncn1 [Example 363, 2-[(5-fluorobenzofuran-2-yl)sulfonylamino]-N-[[6-[4-(trifluoromethoxy)phenyl]-pyrimidin-4-yl]methyl]acetamide] | 920 nM
O=C(NCc1cc(-c2ccc(C(F)(F)F)cn2)ncn1)[C@@H]1CCN1S(=O)(=O)c1cc2cc(F)ccc2o1 [Example 401, (2S)-1-(5-fluorobenzofuran-2-yl)sulfonyl-N-[[6-[5-(trifluoromethyl)-2-pyridyl]pyrimidin-4-yl]methyl]azetidine-2-carboxamide] | 12 nM
O=C(NCc1ccc(O)c(-c2ccc(C(F)(F)F)cn2)c1)[C@@H]1CCN1S(=O)(=O)c1cc2cc(F)ccc2o1 [Example 404, (2S)-1-(5-fluorobenzofuran-2-yl)sulfonyl-N-[[4-hydroxy-3-[5-(trifluoromethyl)-2-pyridyl]phenyl]methyl]azetidine-2-carboxamide] | 9.7 nM
O=C(NCc1cc(-c2ccc(C(F)(F)F)cn2)ncn1)[C@@H]1CCCN1S(=O)(=O)c1cc2cc(F)ccc2o1 [Example 400, (2S)-1-(5-fluorobenzofuran-2-yl)sulfonyl-N-[[6-[5-(trifluoromethyl)-2-pyridyl]pyrimidin-4-yl]methyl]pyrrolidine-2-carboxamide] | 5.2 nM
O=C(CNS(=O)(=O)c1cc2cc(F)ccc2o1)NCc1cc(-c2ccc(C(F)(F)F)cc2)ncn1 [Example 345, 2-[(5-fluorobenzofuran-2-yl)sulfonylamino]-N-[[6-[4-(trifluoromethyl)phenyl]-pyrimidin-4-yl]methyl]acetamide] | 270 nM
O=C(NCc1ccc(O)c(-c2cnc(C(F)(F)F)cn2)c1)[C@@H]1CCN1S(=O)(=O)c1cc2cc(F)ccc2o1 [Example 390, (2S)-1-(5-fluorobenzofuran-2-yl)sulfonyl-N-[[4-hydroxy-3-[5-(trifluoromethyl)pyrazin-2-yl]phenyl]methyl]azetidine-2-carboxamide] | 9.3 nM
CN(C)c1nc(CNC(=O)[C@@H]2CCN2S(=O)(=O)c2cc3cc(F)ccc3o2)cc(-c2ccc(C(F)(F)F)nc2)n1 [Example 384, (2S)-N-[[2-(dimethylamino)-6-[6-(trifluoromethyl)-3-pyridyl]pyrimidin-4-yl]methyl]-1-(5-fluorobenzofuran-2-yl)sulfonyl-azetidine-2-carboxamide] | 13 nM
O=C(NCc1cc(-c2ccc(C(F)(F)F)cn2)cnn1)[C@@H]1CCCN1S(=O)(=O)c1cc2cc(F)ccc2o1 [Example 396, (2S)-1-(5-fluorobenzofuran-2-yl)sulfonyl-N-[[5-[5-(trifluoromethyl)-2-pyridyl]pyridazin-3-yl]methyl]pyrrolidine-2-carboxamide] | 7.6 nM
CC(C)N(CC(=O)NCc1cc(-c2ccc(C(F)(F)F)cc2)ncn1)S(=O)(=O)c1cc2cnccc2o1 [Example 368, 2-[furo[3,2-c]pyridin-2-ylsulfonyl(isopropyl)amino]-N-[[6-[4-(trifluoromethyl)-phenyl]pyrimidin-4-yl]methyl]acetamide] | 13 nM
O=C(NCc1cc(-c2ccc(C(F)(F)F)nc2)ncn1)[C@@H]1CCN1S(=O)(=O)c1cc2cc(F)ccc2o1 [Example 388, (2S)-1-(5-fluorobenzofuran-2-yl)sulfonyl-N-[[6-[6-(trifluoromethyl)-3-pyridyl]pyrimidin-4-yl]methyl]azetidine-2-carboxamide] | 2.7 nM
O=C(NCc1cc(-c2ccc(C(F)(F)F)cc2)nc(N2CCOCC2)n1)[C@@H]1CCCN1S(=O)(=O)c1cc2ccccc2o1 [Example 330, (2S)-1-(benzofuran-2-ylsulfonyl)-N-[[2-morpholino-6-[4-(trifluoromethyl)phenyl]pyrimidin-4-yl]methyl]pyrrolidine-2-carboxamide] | 15 nM
C[C@H](NS(=O)(=O)c1cc2cnccc2o1)C(=O)NCc1cccc(-c2ccc(C(F)(F)F)cn2)c1 [Example 367, (2S)-2-(furo[3,2-c]pyridin-2-ylsulfonylamino)-N-[[3-[5-(trifluoromethyl)-2-pyridyl]-phenyl]methyl]propanamide] | 170 nM
CN(CC(=O)NCc1cc(-c2ccc(OC(F)(F)F)cc2)ncn1)S(=O)(=O)c1cc2cc(F)ccc2o1 [Example 362, 2-[(5-fluorobenzofuran-2-yl)sulfonyl-methyl-amino]-N-[[6-[4-(trifluoromethoxy)-phenyl]pyrimidin-4-yl]methyl]acetamide] | 7 nM
CN(CC(=O)NCc1cc(-c2ccc(C(F)(F)F)cc2)ncn1)S(=O)(=O)c1cc2cc(F)ccc2o1 [Example 344, 2-[(5-fluorobenzofuran-2-yl)sulfonyl-methyl-amino]-N-[[6-[4-(trifluoromethyl)-phenyl]pyrimidin-4-yl]methyl]acetamide] | 3.3 nM
O=C(NCc1cc(-c2ncc(C(F)(F)F)cn2)ccn1)[C@@H]1CCCN1S(=O)(=O)c1cc2cnccc2o1 [Example 365, (2S)-1-furo[3,2-c]pyridin-2-ylsulfonyl-N-[[4-[5-(trifluoromethyl)pyrimidin-2-yl]-2-pyridyl]methyl]pyrrolidine-2-carboxamide] | 220 nM
O=C(NCc1cccc(-c2cnc(C(F)(F)F)cn2)c1)[C@@H]1CCCN1S(=O)(=O)c1cc2cc(F)ccc2o1 [Example 399, (2S)-1-(5-fluorobenzofuran-2-yl)sulfonyl-N-[[3-[5-(trifluoromethyl)pyrazin-2-yl]phenyl]methyl]pyrrolidine-2-carboxamide] | 2.5 nM
O=C(NCc1cc(-c2ccc(OC(F)(F)F)cc2)ncn1)[C@@H]1CCN1S(=O)(=O)c1cc2cc(F)ccc2o1 [Example 395] | 3.2 nM
O=C(NCc1cc(-c2ccc(C(F)(F)F)cc2O)ncn1)[C@@H]1CCN1S(=O)(=O)c1cc2cc(F)ccc2o1 [Example 412, (2S)-1-(5-fluorobenzofuran-2-yl)sulfonyl-N-[[6-[2-hydroxy-4-(trifluoromethyl)phenyl]pyrimidin-4-yl]methyl]azetidine-2-carboxamide] | 2.7 nM
